The values that follow come from publication PMC5515859, “Metabolism of F18, a Derivative of Calanolide A, in Human Liver Microsomes and Cytosol” (Frontiers in Pharmacology, 2017).

Data set [1] relates to CYP2A6. Conditions: cited from earlier work.
Data set [2] deals with carbonyl reductases in HLM. In words: Inhibition of carbonyl reduction of F18 (formation of M3-1 and M3-2) by chemical inhibitors in HLM. Particulars: NADPH, F18 10 μM, 30 min. The format is in vitro ADME, human. The protocol:
F18 (10 μM) was incubated with HLMs (0.5 mg/mL) and the NADPH-generating system for 30 min or with HLcy and a cofactor (NADPH or NADH) for 10 min in the presence of chemical inhibitors under the above-described conditions. Control incubations using the vehicles but not the chemical inhibitors were also performed. The formation of M3-1 and M3-2 was quantified by LC-MS/MS.
(§1) The amounts of F18, M1, M2-9, M3-1, M3-2, M5-2, M5-3, M5-4, and M5-5 in the incubations were simultaneously quantified with the LC-MS/MS system. […] The sheath gas, auxiliary gas, spray voltage and tube lens parameters were the same as those for the metabolic profiling studies.

For data set [3], the system named is CYP2E1. Particulars: cited from earlier work.
The test system of data set [4] is CYP1A2. Also on record: method as in unpublished data. Conditions: previous study; ref unpublished data; cited from earlier work.
Data set [5] is described as follows: Pharmacokinetics in rats after oral administration of F18. The format is in vivo, Sprague-Dawley rats. Particulars: rat blood, oral F18 50 mg/kg, mean ± SD, n = 5. How it is done:
To investigate the pharmacokinetic characteristics of F18 and its major metabolites, five rats were intragastrically administered F18 at a dose of 50 mg/kg. Blood samples were collected in heparinized ice-bath tubes from the suborbital veniplex at 0, 0.25, 0.5, 1, 2, 4, 6, 8, 12, 16, and 24 h postdose. The blood concentrations of F18 and its major metabolites were determined by LC-MS/MS and their pharmacokinetic parameters were calculated through non-compartmental analysis using WinNonlin Version 6.1 (Pharsight, Mountain View, CA, USA).
For the blood samples, F18, M1, M3-1, and M3-2 were simultaneously quantified using the following elution gradient: Solvent B was maintained at 15% for 2 min, increased to 85% in 1 min, maintained at 85% for 5 min, decreased to 15% in 0.5 min and maintained at 15% for 4.5 min. Detection was also performed using a Finnigan TSQ Quantum MS instrument with an electrospray ionization probe operated in the positive mode.
Calibration curves for F18 and its metabolites were fitted via linearly weighted (1/x^2) least-squares regression. The correlation coefficient values of F18 and its metabolites in the incubations were >0.99 for the range 10–5,000 nM; the LOQ was 10 nM with a signal-to-noise ratio >10:1; the accuracies were 90–113% and the precisions (RSD) were <10.5%. In the blood samples, the correlation coefficient values for F18, M1, M3-1, and M3-2 were >0.99 for the range 5–2,000 nM; the LOQ was 5 nM with the signal-to-noise ratio >10:1; the accuracies were 91–112% and the precisions (RSD) were <9.6%. In addition, no interference was found in the retention time of each analyte in both the incubated samples and the blood samples.

Data set [6] deals with CYPs and FMOs in HLMs. In words: Microsomal incubations of F18 with chemical inhibitors of CYPs or thermal inactivation of FMOs. The protocol:
(§2) The contributions of CYPs and FMOs to the metabolism of F18 were investigated by chemical inhibition and thermal inactivation, respectively. […] Briefly, F18 (10 μM) was incubated with HLMs (0.5 mg protein/mL) and an NADPH-generating system in the absence and presence of CYP inhibitors at 37°C for 30 min, and the reaction was terminated with two volumes of ice-cold acetonitrile. […] In brief, HLMs (0.5 mg protein/mL) were preheated at 50°C for 5 min and then immersed in an ice-cold bath. After the addition of F18 (10 μM) and equilibration for 3 min at 37°C, the reaction was started by the addition of the NADPH-generating system. After a 30-min incubation, the reactions were terminated as described above. […] The formation of the major metabolites M1, M2-9, M3-1, M3-2, M5-2, M5-3, M5-4, and M5-5 was analyzed by LC-MS/MS.
as §1

Data set [7] addresses T1, recombinant CYP3A4 (Homo sapiens, UniProt P08684).
T1 construct: purchased BD Gentest (Woburn, MA, USA)
The data set can be described thus: Metabolism of F18 by cDNA-expressed CYP3A4. The format is in vitro ADME. Conditions: F18 10 μM, 50 pmol/mL enzyme, 1 h; among 14 CYP isoforms. How it is done:
To further verify the roles of CYPs and FMOs in the metabolism of F18 in humans, F18 (10 μM) was incubated individually with 14 cDNA-expressed human CYP isozymes (50-pmol/mL CYP1A1, CYP1A2, CYP2A6, CYP2B6, CYP2C8, CYP2C9, CYP2C19, CYP2D6, CYP2E1, CYP2J2, CYP3A4, CYP4F2, CYP4F3, and CYP4A11) and three cDNA-expressed FMO enzymes (50-pmol/mL FMO1, FMO3, and FMO5). The incubation conditions were similar to those used for HLMs (described above), with the exception of the incubating time […]. Samples incubated without NADPH were used as the negative control.

In data set [8] the test system is CYP2C19. Also on record: method as in unpublished data. Conditions: previous study; ref unpublished data; cited from earlier work.
For data set [9], the system named is Y181C single mutation of HIV-1. Conditions: ref Xue et al., 2010; cited from earlier work.
Data set [10] concerns VSV-G/HIV-1 viruses. In words: microbe, parasite or virus in culture. The format is cell-based. Conditions: Human immunodeficiency virus 1, HEK-293T, 48 h, read-out: IC50, inhibition of HIV-1 replication.
Data set [11] has as its system HIV-1. Conditions: ref Xue et al., 2010, cited from earlier work.
The test system of data set [12] is CYP3A4. The arrangement: method as in unpublished data. Particulars: previous study; ref unpublished data; cited from earlier work.
Data set [13] relates to CYP2C9. The arrangement: method as in unpublished data. Particulars: previous study; ref unpublished data; cited from earlier work.
The test system of data set [14] is CYP1A2. Particulars: cited from earlier work.
On the set-up of data set [15]: method as in Creagh et al., 2001; Eiznhamer et al., 2002. Particulars: ref Creagh et al., 2001; Eiznhamer et al., 2002; cited from earlier work.
Data set [16] relates to CYP2D6. Conditions: cited from earlier work.
Data set [17] deals with CYP3A4. The data set can be described thus: Microsomal incubations of F18 with chemical inhibitors of CYPs or thermal inactivation of FMOs. Particulars: human, human liver microsomes. How it is done:
as §2, §1

In data set [18] the test system is CYP3A4/5. Particulars: cited from earlier work.
Data set [19] has as its system CYP2C19. Particulars: cited from earlier work.
[20] abbreviates: high concentration: 18β-glycyrrhetinic acid 0.5 μM, 2-CEE 5 mM.
[21] abbreviates: low concentration: 18β-glycyrrhetinic acid 0.1 μM, 2-CEE 1 mM.
Where [22] appears, read: HLMs preheated at 50°C for 5 min, F18 10 μM.
The mark [23] stands for this setting: read-out: inhibitor Ki, CYP2A6, ref FDA Drug Development and Drug Interactions.

Like-named read-outs stand apart in the source and are kept apart here. Bounds are passed on as bounds.

T1 sequence (P08684 whole entry): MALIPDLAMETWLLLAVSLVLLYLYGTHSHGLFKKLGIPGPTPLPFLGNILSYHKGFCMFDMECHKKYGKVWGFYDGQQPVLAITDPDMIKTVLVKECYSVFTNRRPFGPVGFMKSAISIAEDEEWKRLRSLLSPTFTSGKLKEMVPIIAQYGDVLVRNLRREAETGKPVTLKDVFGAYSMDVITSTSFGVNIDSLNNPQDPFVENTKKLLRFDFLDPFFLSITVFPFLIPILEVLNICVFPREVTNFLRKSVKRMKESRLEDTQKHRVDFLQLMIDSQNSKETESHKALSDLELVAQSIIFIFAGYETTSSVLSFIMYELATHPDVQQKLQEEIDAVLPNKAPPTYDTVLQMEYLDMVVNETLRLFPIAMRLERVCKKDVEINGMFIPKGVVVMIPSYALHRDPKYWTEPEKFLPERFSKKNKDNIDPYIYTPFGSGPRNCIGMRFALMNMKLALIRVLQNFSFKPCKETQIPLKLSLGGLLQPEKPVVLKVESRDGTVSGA

Turning to `N[C@@H]1C[C@H]1c1ccccc1` (racemic) [Tranylcypromine, tranylcypromine], the Ki in data set [1] is 20 to 200 nM.

For the compound `CC1(C)[C@@H](O)CC[C@]2(C)[C@H]3C(=O)C=C4[C@@H]5C[C@@](C)(C(=O)O)CC[C@]5(C)CC[C@@]4(C)[C@]3(C)CC[C@@H]12` [18β-Glycyrrhetinic, 18β-glycyrrhetinic acid], in data set [2] (setting [20]), the “Percentage of inhibition of the formation of M3-1, H” value came out at 13.7% and the “Percentage of inhibition of the formation of M3-2, H” value is given as 67.5%. Besides, in data set [2] (setting [21]), the “Percentage of inhibition of the formation of M3-1, L” value stood at 1.2% and the “Percentage of inhibition of the formation of M3-2, L” value is on record as 51.4%.

For the compound `Cc1ncsc1CCCl` [Clomethiazole], the Ki in [3] is 12 µM.

Turning to `CCCc1cc(=O)oc2c3c(c4c(c12)OC(C)(C)C=C4)OC(CCl)CC3=O` (stereo not drawn) [Metabolite F18, 10-Chloromethyl-11-demethyl-12-oxo-calanolide A], the “Effect on CYP1A2” value in [4] is given as “potent inhibitory effects”. Also, in data set [5] (Sprague-Dawley), the peak concentration (Cmax) turned out to be 443 ± 107 nM, the Tmax came to 3.3 ± 2.2 h and the half-life was 318 ± 168 min. In data set [5] (Sprague-Dawley, read-out: MRT0−t), the MRT last worked out at 7.8 ± 1 h. Further, the MRT inf in [5] (Sprague-Dawley, read-out: MRT0−∞) stood at 10 ± 2.4 h. Also, in data set [5] (50 mg/kg), the “AUC0−∞” value was 5,166 h^*nM. Besides, in data set [6] (setting [22]), the “Formation of M3-1 after thermal inactivation of FMOs” value is on record as “significantly inhibited” and the “Reduction in M1 formation by thermal inactivation of FMOs” value turned out to be 64%. Further, the “Metabolic activity of recombinant CYP3A4 for the formation of M1, M2-9, M5-2, M5-3, M5-4, and M5-5” value in [7] was “highest metabolic activity”. Moreover, the “Effect on CYP2C19” value in [8] is recorded as “potent inhibitory effects”. In addition, in data set [9], the “Potency against Y181C mutant HIV-1 (in words)” value is on record as “extremely high potency”. In [10], the IC50 was 190 nM. Besides, the “therapeutic (index)” value in [11] is 1417. The EC50 in [11] (read-out: half-maximal effective concentration (EC50)) is 7.4 nM. Moreover, the “Effect on CYP3A4” value in data set [12] was “activation-inducing effect”. Besides, the “Effect on CYP2C9” value in data set [13] is “potent inhibitory effects”.

Turning to `CC[C@@H]1C(=O)OC[C@@H]1Cc1cncn1C` [P ilocarpine], the Ki in data set [1] was […].

Regarding `CCOc1ccc(NC(C)=O)cc1` [Phenacetin], the Km in data set [14] (read-out: substrate Km, CYP1A2, metabolite Acetaminophen, ref FDA Drug Development and Drug Interactions) is 1.7 to 152 µM.

In the case of `CCCc1cc(=O)oc2c3c(c4c(c12)OC(C)(C)C=C4)O[C@H](C)[C@@H](C)[C@@H]3O` [calanolide A, Calanolide A], in data set [15], the “Tolerability in Phase I studies” value is “well tolerated”.

As to `COc1ccc2c(c1)[C@]13CCCC[C@@H]1[C@H](C2)N(C)CC3` [dextromethorphan], the Km in data set [16] was 0.44 to 8.5 µM.

`C=CCSSCC=C` [diallyldisulfide]: in [3], the Ki was 150 µM.

For `Cc1nc2c([nH]1)c(=O)n(C)c(=O)n2Cc1ccco1` [furaf ylline, furafylline], the Ki in data set [14] is […].

Regarding `CC(=O)N1CCN(c2ccc(OCC3COC(Cn4ccnc4)(c4ccc(Cl)cc4Cl)O3)cc2)CC1` (stereo not drawn) [ketoconazole], the inhibition at 30 min, 1 μM was greater than 80% in data set [17] and 20 to 30% in data set [17] (probe F18 (10 μM), formation of metabolite M1). In data set [18], the inhibitory constant (Ki) is 3.7 to 180 nM.

For the compound `COc1c2occc2cc2ccc(=O)oc12` [methoxsalen], the Ki in data set [1] (setting [23]) was […].

In the case of `Cc1ncc2n1-c1ccc(Cl)cc1C(c1ccccc1F)=NC2` [midazolam], the “Metabolism of probe substrate after thermal inactivation of HLMs” value in [6] is on record as “unchanged”. In data set [18], the Km was 1 to 14 µM.

As to `C=C(C)[C@@H]1CCC2=CC(=O)C[C@@H](C)[C@]2(C)C1` [nootkatone], the Ki in data set [19] is 500 nM.

With `C=C[C@H]1C[N@@]2CC[C@H]1C[C@@H]2[C@@H](O)c1ccnc2ccc(OC)cc12` [quinidine], the Ki in [16] is […].

With `NCCc1c[nH]c2ccccc12` [tr ypta mine], the Ki in data set [1] (setting [23]) is 1700 nM.

Take `O=c1cc(-c2ccccc2)oc2c1ccc1ccccc12` [α-naphthoflavone]: the Ki in [14] (read-out: inhibitor Ki, CYP1A2, ref FDA Drug Development and Drug Interactions) is […].

Usually Ki stands for the equilibrium dissociation constant of an inhibitor or competing ligand from its target. For orientation: Cmax means the peak of the concentration-time curve. In general, Tmax refers to the time from dosing to the highest level. As a reminder, the half-life is the time needed for the level to fall by half in the phase considered. High values mean slow decline, low ones rapid decline. One may read the IC50 as the concentration needed to halve the response being measured. What is called Km is the substrate concentration at which the rate is half of its maximum. A word on the inhibition: it is the share of the control response that was lost under treatment.
